{"source": "patent US9820497B2", "about": "“Astaxanthin-containing pet foods” (FUJI CHEMICAL INDUSTRY CO., LTD, priority 2003, dated 2017)", "key": {"[1]": {"settings": "known; cited from earlier work"}, "[2]": {"settings": "as high as β-carotene; cited from earlier work"}, "dogs": {"system": "dogs", "test": "Health conditions of the dogs before and during administration", "format": "in vivo, dog", "settings": "four dogs, before and during the 4 weeks of administration", "description": "(§1) Four dogs were fed only with the same commercially available dog food for 3 months or more, and thereafter, two AstaReal tablets (manufactured by Natureal Corporation, containing 0.67 mg of free astaxanthin per tablet in terms of free astaxanthin) per day were given to the dogs at dinner for 4 weeks. […] The feces discharged before and after administration of astaxanthin were collected. Samples were prepared each by taking a piece from the top portion, middle portion and end portion in the same amount and mixing these pieces. The samples were placed in a shielded vessel of 100 ml in volume and kept in dark and used in tests within 24 hours."}, "[3]": {"test": "Feces odor test (odor tester KALMOR-Σ) before and after administration", "format": "in vivo, dog", "settings": "four dogs, 4 weeks of administration; conclusion from Table 3", "description": "as §1\nOdor of the samples was measured by an odor tester (KALMOR-Σ, manufactured by Kalmor Co.) in a room maintained at 22° C. To explain more specifically, the odor of an airtight vinyl bag of 280 mm×200 mm containing no sample was measured as an initial value by inserting a test probe. Then, 100 mg of sample was weighed, placed in the vinyl bag and stand still for 15 minutes. The odor of the vinyl bag having the sample placed therein was measured (measured value). The value of the odor was obtained by subtracting the initial value from the measured value."}}}
{"molecule": "CC1=C(/C=C/C(C)=C/C=C/C(C)=C/C=C/C=C(C)/C=C/C=C(C)/C=C/C2=C(C)C(=O)C(O)CC2(C)C)C(C)(C)CC(O)C1=O", "note": "(stereo not drawn) [astaxanthin, 3,3′-dihydroxy-β,β-carotene-4,4′-dione]", "values": [{"measurement": "mutagenicity", "setting": "[1]", "value": "no mutagenicity is observed"}, {"measurement": "antioxidative action relative to β-carotene", "setting": "[2]", "value": "about 40 times"}, {"measurement": "health conditions (diarrhea, fatigue)", "setting": "dogs", "value": "healthy conditions without exhibiting diarrhea and fatigue"}, {"measurement": "odor of the excrement", "setting": "[3]", "value": "clearly is decreased"}]}
